Patent publication US20120010173A1 (SEPS PHARMA N.V., priority 2009, published 2012)
≈ marks a conversion by molar mass, not a printed value.

Tests used:
Type in all cases: physicochemical
[1] = Solubility of fosfluconazole derivatives in pharmaceutical solvents (Table 2); conditions: for solubility at 24 h: thermodynamic from solid
Description: The solubility determination method used was as follows: a suspension of 6 mg of the tested fosfluconazole derivative in 500 μl of the applicable pharmaceutical solvent was rotatively shaken for 24 hours at 800 rpm at 25° C. The saturated fosfluconazole derivative solution was filtered (0.45 μm) and 150 μl of the filtrate was diluted in dimethylsulfoxide (50 μl DMSO). This solution was assayed, each assay being carried out in three-fold, by measurement with Liquid Chromatography-Mass Spectrometry (LCMS, 1 μl and 10 μl injection). Standards were prepared by dissolving the corresponding fosfluconazole derivative in DMSO (1 mg/ml). To determine the solubility, four aliquots (0.5, 1, 2, 4 μl) of the standard solution were injected using the same LCMS conditions as for the above exemplary samples.

[2] = Chemical stability in pharmaceutical solvents (weight % remaining in solution, LCMS)
Description: (§1) Table 4 provides the chemical stability data in some pharmaceutical solvents, expressed as the weight percentage (% w/w) of the final fosfluconazole derivative produced and characterized in example 1 that remained in solution after a certain period of time. The test was carried out twice, and the remaining weight % was determined by Liquid Chromatography-Mass Spectrometry (LCMS).
as §1, with “5” for “4”, “solvents at 25° C.,” for “solvents,”, “2” for “1”
as §1, with “6” for “4”, “solvents at 25° C.,” for “solvents,”, “3” for “1”
as §1, with “7” for “4”, “4” for “1”
as §1, with “8” for “4”, “5” for “1”
as §1, with “9” for “4”, “6” for “1”
as §1, with “10” for “4”, “14” for “1”

[3] = Solubility in pharmaceutical solvents (Table 3); conditions: for calculated fluconazole concentration: value within brackets
Source text: The values within brackets in Table 3 correspond to the calculated fluconazole concentrations taking into account the molecular weights of the relevant fosfluconazole prodrug and fluconazole itself.

[4] = H2O/Kleptose HPB (60/40), 4 hours
[5] = H2O/Kleptose HPB (60/40), 1 day
[6] = H2O/Kleptose HPB (60/40), 2 days
[7] = H2O/Kleptose HPB (60/40), 7 days
[8] = H2O/Kleptose HPB (60/40), 14 days
[9] = aqueous with cosolvent or surfactant or cyclodextrin, H2O/Cremophor RH 40 (80/20), 25° C.
[10] = aqueous with cosolvent or surfactant or cyclodextrin, H2O/Kleptose HPB (60/40), 25° C.
[11] = aqueous with cosolvent or surfactant or cyclodextrin, H2O/Vitamin E TPGS (90/10), 25° C.
[12] = aqueous with cosolvent or surfactant or cyclodextrin, H2O/polysorbate 80 (80/20), 25° C.
[13] = oil or lipid, Miglyol 812, 25° C.
[14] = organic solvent or mixture, PEG 400, 25° C.
[15] = water (pH 2), aqueous buffer, H2O (pH = 2), 25° C.
[16] = water (pH 7), aqueous buffer, H2O (pH = 7), 25° C.
[17] = water (pH 10), aqueous buffer, H2O (pH = 10), 25° C.

Molecule: 2-((2-(2,4-difluorophenyl)-1,3-di(1H-1,2,4-triazol-1-yl)propan-2-yloxy)(ethoxy)phosphoryloxy)ethyl (3S,8R,9S,10R,13S,14S,17R)-10,13,17-trimethyl-17-((R)-6-methylheptan-2-yl)-2,3,4,7,8,9,10,11,12,13,14,15,16,17-tetradecahydro-1H-cyclopenta[a]phenanthren-3-yl succinate [Example 6]
- solubility ([1]; H2O (pH = 2), 25° C.): <1 µg/mL
- solubility ([1]; H2O (pH = 7), 25° C.): <1 µg/mL
- solubility ([1]; H2O (pH = 10), 25° C.): <1 µg/mL
- solubility ([1]; H2O/Cremophor RH 40 (80/20), 25° C.): <1 µg/mL
- solubility ([1]; H2O/Kleptose HPB (60/40), 25° C.): 600 µg/mL
- solubility ([1]; H2O/Vitamin E TPGS (90/10), 25° C.): 6200 µg/mL
- solubility ([1]; H2O/polysorbate 80 (80/20), 25° C.): >10000 µg/mL
- solubility ([1]; Miglyol 812, 25° C.): >10000 µg/mL
- solubility ([1]; PEG 400, 25° C.): >10000 µg/mL
- weight percentage that remained in solution ([2]; H2O (pH = 2), 2 hours): 98.4 % w/w
- weight percentage that remained in solution ([2]; H2O (pH = 2), 4 hours): 44.0 % w/w
- weight percentage that remained in solution ([2]; H2O (pH = 2), 1 day): 55.3 % w/w
- weight percentage that remained in solution ([2]; H2O (pH = 2), 2 days): 46.4 % w/w
- weight percentage that remained in solution ([2]; H2O (pH = 2), 7 days): 0.0 % w/w
- weight percentage that remained in solution ([2]; H2O (pH = 2), 14 days): 0.0 % w/w
- weight percentage that remained in solution ([2]; H2O (pH = 7), 2 hours): 100.0 % w/w
- weight percentage that remained in solution ([2]; H2O (pH = 7), 4 hours): 100.0 % w/w
- weight percentage that remained in solution ([2]; H2O (pH = 7), 1 day): 100.0 % w/w
- weight percentage that remained in solution ([2]; H2O (pH = 7), 2 days): 100.0 % w/w
- weight percentage that remained in solution ([2]; H2O (pH = 7), 7 days): 100.0 % w/w
- weight percentage that remained in solution ([2]; H2O (pH = 7), 14 days): 100.0 % w/w
- weight percentage that remained in solution ([2]; H2O (pH = 10), 2 hours): 100.0 % w/w
- weight percentage that remained in solution ([2]; H2O (pH = 10), 4 hours): 100.0 % w/w
- weight percentage that remained in solution ([2]; H2O (pH = 10), 1 day): 100.0 % w/w
- weight percentage that remained in solution ([2]; H2O (pH = 10), 2 days): 100.0 % w/w
- weight percentage that remained in solution ([2]; H2O (pH = 10), 7 days): 100.0 % w/w
- weight percentage that remained in solution ([2]; H2O (pH = 10), 14 days): 100.0 % w/w
- weight percentage that remained in solution ([2]; H2O/Kleptose HPB (60/40), 2 hours): 86.7 % w/w
- weight percentage that remained in solution [2, 4]: 86.7 % w/w
- weight percentage that remained in solution [2, 5]: 86.7 % w/w
- weight percentage that remained in solution [2, 6]: 86.7 % w/w
- weight percentage that remained in solution [2, 7]: 86.7 % w/w
- weight percentage that remained in solution [2, 8]: 86.7 % w/w
- weight percentage that remained in solution ([2]; PEG 400, 2 hours): 100.0 % w/w
- weight percentage that remained in solution ([2]; PEG 400, 4 hours): 100.0 % w/w
- weight percentage that remained in solution ([2]; PEG 400, 1 day): 100.0 % w/w
- weight percentage that remained in solution ([2]; PEG 400, 2 days): 100.0 % w/w
- weight percentage that remained in solution ([2]; PEG 400, 7 days): 100.0 % w/w
- weight percentage that remained in solution ([2]; PEG 400, 14 days): 100.0 % w/w
- solubility ([3]; Benzylalcohol): ≥ 226.7
- calculated fluconazole concentration ([3]; Benzylalcohol): (74.8)
- solubility ([3]; Benzylbenzoate): ≥ 226.7
- calculated fluconazole concentration ([3]; Benzylbenzoate): (74.8)
- solubility ([3]; Ethylbenzoate): ≥ 226.7
- calculated fluconazole concentration ([3]; Ethylbenzoate): (74.8)
- solubility ([3]; Miglyol 812): 200.0
- calculated fluconazole concentration ([3]; Miglyol 812): (66.0)
- solubility ([3]; N-methylpyrrolidone): ≥ 226.7
- calculated fluconazole concentration ([3]; N-methylpyrrolidone): (74.8)
- solubility ([3]; Sesame oil (LCT)): 23.3
- calculated fluconazole concentration ([3]; Sesame oil (LCT)): (7.7)

Molecule: CCOP(=O)(O[C@H]1CC[C@@]2(C)C(=CC[C@H]3[C@@H]4CC[C@H]([C@H](C)CCCC(C)C)[C@@]4(C)CC[C@@H]32)C1)OC(Cn1cncn1)(Cn1cncn1)c1ccc(F)cc1F (stereo partly shown) [Example 5]
- solubility at 24 h [1, 9]: 900 µg/mL (≈ 1.15 mM)
- solubility at 24 h [1, 10]: 500 µg/mL (≈ 0.639 mM)
- solubility at 24 h [1, 11]: 1400 µg/mL (≈ 1.79 mM)
- solubility at 24 h [1, 12]: 4500 µg/mL (≈ 5.75 mM)
- solubility at 24 h [1, 13]: 9700 µg/mL (≈ 12.4 mM)
- solubility at 24 h [1, 14]: 4100 µg/mL (≈ 5.24 mM)
- solubility at 24 h [1, 15]: < 1 µg/mL
- solubility at 24 h [1, 16]: < 1 µg/mL
- solubility at 24 h [1, 17]: < 1 µg/mL
- solubility ([3]; Benzylalcohol, organic solvent or mixture, read-out: solubility): ≥ 227000 µg/mL
- solubility ([3]; Benzylbenzoate, organic solvent or mixture, read-out: solubility): 90000 µg/mL (≈ 115 mM)
- solubility ([3]; Ethylbenzoate, organic solvent or mixture, read-out: solubility): 133000 µg/mL (≈ 170 mM)
- solubility ([3]; Miglyol 812, oil or lipid, read-out: solubility): 12000 µg/mL (≈ 15.3 mM)
- solubility ([3]; N-methylpyrrolidone, organic solvent or mixture, read-out: solubility): ≥ 227000 µg/mL
- solubility ([3]; Sesame oil (LCT), oil or lipid, read-out: solubility): 10000 µg/mL (≈ 12.8 mM)

Molecule: CCCCCCCCCOP(=O)([O-])OC(Cn1cncn1)(Cn1cncn1)c1ccc(F)cc1F.[Na+] [Example 14, sodium 2-(2,4-difluorophenyl)-1,3-di(1H-1,2,4-triazol-1-yl)propan-2-yl nonyl phosphate]
- solubility at 24 h [1, 9]: > 10000 µg/mL
- solubility at 24 h [1, 10]: > 10000 µg/mL
- solubility at 24 h [1, 11]: > 10000 µg/mL
- solubility at 24 h [1, 12]: > 10000 µg/mL
- solubility at 24 h [1, 13]: 1200 µg/mL
- solubility at 24 h [1, 14]: > 10000 µg/mL
- solubility at 24 h [1, 15]: > 10000 µg/mL
- solubility at 24 h [1, 16]: > 10000 µg/mL
- solubility at 24 h [1, 17]: > 10000 µg/mL
- weight percentage that remained in solution ([2]; H2O (pH = 2), 4 hours): 99.0 % w/w
- weight percentage that remained in solution ([2]; H2O (pH = 2), 1 day): 99.1 % w/w
- weight percentage that remained in solution ([2]; H2O (pH = 2), 2 days): 99.2 % w/w
- weight percentage that remained in solution ([2]; H2O (pH = 2), 7 days): 99.2 % w/w
- weight percentage that remained in solution ([2]; H2O (pH = 2), 14 days): 99.6 % w/w
- weight percentage that remained in solution ([2]; H2O (pH = 7), 4 hours): 99.1 % w/w
- weight percentage that remained in solution ([2]; H2O (pH = 7), 1 day): 99.3 % w/w
- weight percentage that remained in solution ([2]; H2O (pH = 7), 2 days): 99.2 % w/w
- weight percentage that remained in solution ([2]; H2O (pH = 7), 7 days): 99.2 % w/w
- weight percentage that remained in solution ([2]; H2O (pH = 7), 14 days): 99.4 % w/w
- weight percentage that remained in solution ([2]; H2O (pH = 10), 4 hours): 99.3 % w/w
- weight percentage that remained in solution ([2]; H2O (pH = 10), 1 day): 99.3 % w/w
- weight percentage that remained in solution ([2]; H2O (pH = 10), 2 days): 99.4 % w/w
- weight percentage that remained in solution ([2]; H2O (pH = 10), 7 days): 99.3 % w/w
- weight percentage that remained in solution ([2]; H2O (pH = 10), 14 days): 99.9 % w/w
- weight percentage that remained in solution [2, 4]: 99.5 % w/w
- weight percentage that remained in solution [2, 5]: 99.3 % w/w
- weight percentage that remained in solution [2, 6]: 99.2 % w/w
- weight percentage that remained in solution [2, 7]: 99.3 % w/w
- weight percentage that remained in solution [2, 8]: 100.0 % w/w
- weight percentage that remained in solution ([2]; PEG 400, 4 hours): 99.3 % w/w
- weight percentage that remained in solution ([2]; PEG 400, 1 day): 99.3 % w/w
- weight percentage that remained in solution ([2]; PEG 400, 2 days): 99.4 % w/w
- weight percentage that remained in solution ([2]; PEG 400, 7 days): 99.4 % w/w
- weight percentage that remained in solution ([2]; PEG 400, 14 days): 100.0 % w/w
